Experimental data reported in US20180221352A1, “3-(1H-PYRROLO[2,3-C]PYRIDIN-2-YL)-1H-PYRAZOLO[3,4-B]PYRIDINES AND THERAPEUTIC USES THEREOF” (Samumed, LLC, priority 2015, published 2018).

How the values were obtained:
Format in all cases: cell-based
[1] = test system: Wnt activity (Sp5-Luc reporter, SW480 colon carcinoma cells); assay: Wnt activity screening assay, Sp5-Luc reporter gene in SW480 cells; settings: Homo sapiens; for inhibition at 10 µM: SW480, read-out: percent inhibition at 10 μM; for EC50: Sp5-Luc reporter, SW480 cells, overnight incubation
Excerpt: The screening assay for Wnt activity is described as follows. Reporter cell lines can be generated by stably transducing cancer cell lines (e.g., colon cancer) or primary cells (e.g., IEC-6 intestinal cells) with a lentiviral construct that includes a Wnt-responsive promoter driving expression of the firefly luciferase gene.
SW480 colon carcinoma cells were transduced with a lentiviral vector expressing luciferase with a human Sp5 promoter consisting of a sequence of eight TCF/LEF binding sites. SW480 cells stably expressing the Sp5-Luc reporter gene and a hygromycin resistance gene were selected by treatment with 150 μg/mL of hygromycin for 7 days. These stably transduced SW480 cells were expanded in cell culture and used for all further screening activities. […] For Sp5-Luc reporter gene assays, the cells were plated at 4,000 cells/well in 384-well plates with medium containing 1% fetal bovine serum and incubated overnight at 37° C. and 5% CO2. Following incubation, 20 μl of BrightGlo luminescence reagent (Promega) was added to each well of the 384-well assay plates. The plates were placed on an orbital shaker for 2 min and then luminescence was quantified using the Envision (Perkin Elmer) plate reader. Readings were normalized to DMSO only treated cells, and normalized activities were utilized for EC50 calculations using the dose-response log (inhibitor) vs. response−variable slope (four parameters) nonlinear regression feature available in GraphPad Prism 5.0 (or Dotmatics).

[2] = test system: SW480 colon cancer cells; assay: Cell viability assay (CellTiter-Blue); settings: Homo sapiens; for EC50: 96 h, SW480 cell viability, four days; for inhibition at 10 µM: SW480, 96 h, read-out: percent inhibition at 10 μM
Description: Representative compounds were screened using the following assay procedure to assess the effect on cell viability as described below.
Approximately 2×10^3 SW480 colon cancer cells were seeded into each well and allowed to incubate in the presence or absence of compound for four days at 37° C./5% CO2. Eight replicates of DMSO-treated cells served as controls and cells treated with compound were performed in duplicate.
After incubation, 20 μL of CellTiter-Blue (Promega) was added to each well allowed to incubate for approximately 3 hours. This reagent was a buffered solution which contains resazurin, metabolically active cells were able to reduce rezarurin (blue) into resorufin (pink) which was highly fluorescent. This measured fluorescence was used as a readout for cell viability.

[3] = test system: primary human fibroblasts derived from IPF patients (LL29 cells); assay: Inhibition of fibrotic process, αSMA staining in TGF-β1 treated fibroblasts; settings: Fibroblast; for EC50: 96 h, LL29 cells, TGF-β1 20 ng/mL, 4 days, % αSMA positive cells; for inhibition at 10 µM: read-out: percent inhibition at 10 μM
Description: Representative compounds were screened using primary human fibroblasts (derived from IPF patients) treated with TGF-β1 to determine their ability to inhibit the fibrotic process.
LL29 cells are plated at 1,500 cells/well in 80 μL/well F12 medium supplemented with 1% Fetal Bovine Serum. […] Wells treated with TGF-31 and containing DMSO were used as controls. […] Following incubation for 4 days, SYTOX green nucleic acid stain (Life Technologies [Thermo Fisher Scientific]) was added to the wells at a final concentration of 1 μM and incubated at room temperature for 30 min.

[4] = test system: IL-6; assay: IL-6 inhibition in LPS-stimulated THP-1 cells (HTRF); settings: Homo sapiens; for EC50: THP-1 cells, LPS 500 ng/mL, 22 hours, IL6 HTRF; for inhibition at 10 µM: THP-1, read-out: percent inhibition at 10 μM
Description: THP-1 cells were cultured in basal media with 1% FBS for 24 hours before the start of the assay. […] THP-1 cells were plated at 5000 cells/well in the 384-well plates and incubated at 37° C. for 2 h. 500 ng/mL of LPS was added after 2 hours and cells were incubated for another 22 hours at 37° C. Plates were spun in a centrifuge for 1 minute at […] and a mixture of anti-IL6 XL665, and anti-IL6 Cryptate diluted in reconstitution buffer (Cisbio Inc.) was added to each well. Following incubation for 3 hrs at room temperature, Homogeneous Time-Resolved Fluorescence (HTRF) was measured using the Envision (Perkin Elmer) at 665 nm and […]. The ratio of fluorescence at 665 nm to 620 nm was used as a readout for IL6 quantification. All samples were processed in duplicate. Readings were normalized to DMSO treated cells and normalized activities were utilized for EC50 calculations using the dose-response log (inhibitor) vs. response−variable slope (four parameters) nonlinear regression feature available in GraphPad Prism 5.0 (or Dotmatics).

EC50 [1] [µM] | EC50 [2] [µM] | EC50 [4] [µM] | SMILES | inhibition at 10 µM [1] [%] | inhibition at 10 µM [2] [%] | EC50 [3] [µM] | inhibition at 10 µM [3] [%] | inhibition at 10 µM [4] [%]
> 10 | > 10 | 4.09 | Fc1cccc(-c2cncc3[nH]c(-c4n[nH]c5ncc(C6CCNCC6)cc45)cc23)c1 [Compound 505, 3-(4-(3-Fluorophenyl)-1H-pyrrolo[2,3-c]pyridin-2-yl)-5-(piperidin-4-yl)-1H-pyrazolo[3,4-b]pyridine] | 17.5 | 7 | > 10 | 0 | 
> 10 | 6.29 | > 10 | CN(C)Cc1cncc(-c2cnc3[nH]nc(-c4cc5c(-c6ccoc6)cncc5[nH]4)c3c2)c1 [Compound 321, 1-(5-(3-(4-(Furan-3-yl)-1H-pyrrolo[2,3-c]pyridin-2-yl)-1H-pyrazolo[3,4-b]pyridin-5-yl)pyridin-3-yl)-N,N-dimethylmethanamine] | 15.4 |  | > 10 | 41.1 | 29.2
4.98 | 3.17 | > 10 | c1ncc(-c2cnc3[nH]nc(-c4cc5c(N6CCCCC6)cncc5[nH]4)c3c2)cc1CN1CCCCC1 [Compound 183, 3-(4-(Piperidin-1-yl)-1H-pyrrolo[2,3-c]pyridin-2-yl)-5-(5-(piperidin-1-ylmethyl)pyridin-3-yl)-1H-pyrazolo[3,4-b]pyridine] |  |  | 2.4 |  | 20.3
> 10 | > 10 | > 10 | O=C(Nc1cncc(-c2cnc3[nH]nc(-c4cc5c(-c6ccncc6)cncc5[nH]4)c3c2)c1)C1CCCC1 [Compound 134, N-(5-(3-(4-(Pyridin-4-yl)-1H-pyrrolo[2,3-c]pyridin-2-yl)-1H-pyrazolo[3,4-b]pyridin-5-yl)pyridin-3-yl)cyclopentanecarboxamide] | 0 | 10.6 | > 10 | 27.9 | 30
1.63 | 1.62 | > 10 | CC(C)CC(=O)Nc1cncc(-c2cnc3[nH]nc(-c4cc5c(-c6ccc(F)cc6)cncc5[nH]4)c3c2)c1 [Compound 30, N-(5-(3-(4-(4-Fluorophenyl)-1H-pyrrolo[2,3-c]pyridin-2-yl)-1H-pyrazolo [3,4-b]pyridin-5-yl)pyridin-3-yl)-3-methylbutanamide] |  |  | 1.14 |  | 24.6
0.532 | 0.586 | 0.324 | O=C(Nc1cncc(-c2cnc3[nH]nc(-c4cc5c(-c6cccc(F)c6)cncc5[nH]4)c3c2)c1)C1CCC1 [Compound 21, N-(5-(3-(4-(3-Fluorophenyl)-1H-pyrrolo[2,3-c]pyridin-2-yl)-1H-pyrazolo [3,4-b]pyridin-5-yl)pyridin-3-yl)cyclobutanecarboxamide] |  |  | 0.31 |  | 
0.84 | 0.638 | 1.29 | O=C(Nc1cncc(-c2cnc3[nH]nc(-c4cc5c(-c6ccccc6F)cncc5[nH]4)c3c2)c1)C1CCCC1 [Compound 78, N-(5-(3-(4-(2-Fluorophenyl)-1H-pyrrolo[2,3-c]pyridin-2-yl)-1H-pyrazolo [3,4-b]pyridin-5-yl)pyridin-3-yl)cyclopentanecarboxamide] |  |  | 0.408 |  | 
9.34 | 3.32 | 1.55 | CCNCc1cncc(-c2cnc3[nH]nc(-c4cc5ccncc5[nH]4)c3c2)c1 [Compound 258, N-((5-(3-(1H-Pyrrolo[2,3-c]pyridin-2-yl)-1H-pyrazolo[3,4-b]pyridin-5-yl)pyridin-3-yl)methyl)ethanamine] |  |  | 7.43 |  | 
> 10 | > 10 | > 10 | O=C(CC1CCNCC1)Nc1cncc(-c2cnc3[nH]nc(-c4cc5c(-c6cccnc6)cncc5[nH]4)c3c2)c1 [Compound 561, 2-(Piperidin-4-yl)-N-(5-(3-(4-(pyridin-3-yl)-1H-pyrrolo[2,3-c]pyridin-2-yl)-1H-pyrazolo[3,4-b]pyridin-5-yl)pyridin-3-yl)acetamide] | 0 | 4.4 | 2.2 |  | 14.5
4.15 | 1.91 | > 10 | Fc1cccc(-c2cncc3[nH]c(-c4n[nH]c5ncc(-c6ccncc6)cc45)cc23)c1 [Compound 18, 3-(4-(3-Fluorophenyl)-1H-pyrrolo[2,3-c]pyridin-2-yl)-5-(pyridin-4-yl)-1H-pyrazolo[3,4-b]pyridine] |  |  | 1.23 |  | 20.3
> 10 | 3.84 | > 10 | O=C(Nc1cncc(-c2cnc3[nH]nc(-c4cc5c(N6CCCCC6)cncc5[nH]4)c3c2)c1)c1ccccc1 [Compound 179, N-(5-(3-(4-(Piperidin-1-yl)-1H-pyrrolo[2,3-c]pyridin-2-yl)-1H-pyrazolo[3,4-b]pyridin-5-yl)pyridin-3-yl)benzamide] | 45.1 |  | 4.59 |  | 36.1
> 10 | > 10 | 0.325 | CS(=O)(=O)NCc1cc(F)cc(-c2cncc3[nH]c(-c4n[nH]c5ncc(-c6cncc(CN7CCCC7)c6)cc45)cc23)c1 [Compound 490, N-(3-Fluoro-5-(2-(5-(5-(pyrrolidin-1-ylmethyl)pyridin-3-yl)-1H-pyrazolo [3,4-b]pyridin-3-yl)-1H-pyrrolo[2,3-c]pyridin-4-yl)benzyl)methanesulfonamide] | 24 | 9.7 | > 10 | 16.2 | 
3.87 | 1.15 | 3.75 | c1ccc(-c2cnc3[nH]nc(-c4cc5ccncc5[nH]4)c3c2)nc1 [Compound 280, 5-(Pyridin-2-yl)-3-(1H-pyrrolo[2,3-c]pyridin-2-yl)-1H-pyrazolo[3,4-b]pyridine] |  |  | 1.59 |  | 
> 10 | > 10 | 0.068 | CC(C)Nc1cncc(-c2cnc3[nH]nc(-c4cc5c(-c6ccncc6)cncc5[nH]4)c3c2)c1 [Compound 124, N-Isopropyl-5-(3-(4-(pyridin-4-yl)-1H-pyrrolo[2,3-c]pyridin-2-yl)-1H-pyrazolo[3,4-b]pyridin-5-yl)pyridin-3-amine] | 15.5 | 3.2 | 2.4 |  | 
1.01 | 0.747 | 3.12 | CC(C)(C)CC(=O)Nc1cncc(-c2cnc3[nH]nc(-c4cc5c(-c6ccccc6F)cncc5[nH]4)c3c2)c1 [Compound 72, N-(5-(3-(4-(2-Fluorophenyl)-1H-pyrrolo[2,3-c]pyridin-2-yl)-1H-pyrazolo [3,4-b]pyridin-5-yl)pyridin-3-yl)-3,3-dimethylbutanamide] |  |  | 0.384 |  | 
> 10 | 2.08 | 0.127 | CC(C)(C)C(=O)Nc1cncc(-c2cnc3[nH]nc(-c4cc5c(-c6ccc(F)cc6)cncc5[nH]4)c3c2)c1 [Compound 36, N-(5-(3-(4-(4-Fluorophenyl)-1H-pyrrolo[2,3-c]pyridin-2-yl)-1H-pyrazolo [3,4-b]pyridin-5-yl)pyridin-3-yl)pivalamide] | 18.8 |  | 2.55 |  | 
